Values joined by “and” are separate entries in the source; they are usually repeats but may differ in a detail not shown here. Equal entries are not always repeated. Structures can show the parent of a compound that is named as a salt. Where two headings read alike, the source gives them in different places.
Tests used:
[1] = biological target: T1, PKA-N-HiBiT (Homo sapiens, UniProt P17612); assay: SDR assay, PKA-N-HiBiT; settings: for SDR Ave Max Response: average maximal response; for PKA SDR: Log [H-89]
[2] = biological target: T2, ABL1-N-HiBiT kinase domain (Homo sapiens, UniProt P00519); assay: SDR assay, ABL1-N-HiBiT; settings: for ABL1 SDR pSDR50: heatmap data, 128 kinase inhibitors; for EC50: read-out: SDR Ave SDR50, average, unit inferred
T2 sequence (P00519 233-500): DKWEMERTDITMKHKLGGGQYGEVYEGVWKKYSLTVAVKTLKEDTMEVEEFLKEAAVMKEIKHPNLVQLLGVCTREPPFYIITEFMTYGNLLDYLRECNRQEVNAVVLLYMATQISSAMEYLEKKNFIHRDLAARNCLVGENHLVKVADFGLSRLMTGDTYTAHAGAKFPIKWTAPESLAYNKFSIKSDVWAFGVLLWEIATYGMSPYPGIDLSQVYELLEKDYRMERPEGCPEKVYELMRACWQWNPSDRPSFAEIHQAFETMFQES

[3] = tested on: ABL1; settings: cited from earlier work
[4] = tested on: PKA; settings: annotation yes/no for kinase library compound; source not given; cited from earlier work
[5] = biological target: T2, ABL1-N-HiBiT kinase domain; assay: ABL1 peptide phosphorylation, Kinase-Glo Plus (KGP) assay, ABL1-N-HiBiT; format: biochemical; parameters: containing amino acid residues Asp233-Ser500; His10 (N); made in house; host or cells: E. coli BL21(DE3); settings: for IC50: ABL1-N-HiBiT qHTS, average, unit inferred, read-out: ABL1 KGP Ave IC50; for Efficacy / Hill Coef / Max Resp / CC-v2: KGP Rep 1; for CC-v2: curve class; for ABL1 KGP pIC50: ABL1, Kinase-Glo Plus (KGP), heatmap data, 128 kinase inhibitors
Procedure: (§1) Kinase activity was measured by ATP depletion using the Kinase-Glo Plus (KGP) assay kit (Promega) in 1536-well plate format. […] Controls were added with a Mosquito dispenser (STP LabTech) while compounds were transferred with a pintool to each plate as described in Supplementary Data 8 and incubated for 30 min at ambient temperature. […] Following a 10 min incubation, KGP luminescence was measured with a ViewLux plate reader with 1 sec exposure, with medium to high gain setting, slow speed and 2x binning. Data were normalized to the average of no enzyme control column as 100% kinase inhibition and DMSO control column as 100% phosphorylation reaction progress. See Supplementary Table 5 for additional details.
(§2) Protocol for Abelson kinase (ABL1) and protein kinase A (PKA) peptide phosphorylation assays
(§3) Supplementary Table 5: Protocol for Abelson kinase (ABL1) and protein kinase A (PKA) peptide phosphorylation assays Sequence Param eter Value Description
(§4) 3 Incubation 30 m in Incubate enzym e + com pounds at am bient tem p for 30 m in, protected from light […]
(§5) protocol; dispensed with BioRaptr 2

[6] = biological target: T1, PKA-N-HiBiT; assay: PKA peptide phosphorylation, Kinase-Glo Plus (KGP) assay, PKA-N-HiBiT; format: biochemical; parameters: containing amino acids Gly2-Phe351; His10 (N); made in house; host or cells: E. coli BL21(DE3); settings: for Efficacy / Max Resp / CC-v2 / Hill Coef: KGP Rep 1; for CC-v2: curve class
Procedure: as §1, §2, §3, §4, §5

[7] = ABL1-N-HiBiT qHTS, average maximal SDR response
[8] = read-out: PKA SDR Ave SDR50, PKA-N-HiBiT qHTS, SDR assay, average
[9] = PKA-N-HiBiT qHTS, Kinase-Glo Plus, average, read-out: PKA KGP Ave IC50
[10] = Figure 2i correlation plot data, read-out: ABL1 Enz Assay Mean (PKA KGP assay pIC50) (converted)
[11] = PKA-N-HiBiT 10 nM SDR, ligand 35.7 µM SDR
[12] = PKA-N-HiBiT […] Std, ligand 62.5 µM Std

Compound | SDR Ave Max Response ([1]; PKA-N-HiBiT qHTS, SDR assay) | SDR Ave Max Response [2, 7] | Annotated ABL1 activity [3] | Annotated PKA activity [4] | EC50 [1, 8] [nM] | ABL1 SDR pSDR50 [2] | EC50 ([2]; ABL1-N-HiBiT qHTS) [µM] | further results
CCN(CC)CCOc1ccc(Nc2ncc3cc(-c4c(Cl)cccc4Cl)c(=O)n(C)c3n2)cc1.Cl.Cl.O [PD-166285 hydrate] | -22.35 | 51.60 | yes | no | – | – | – | –
PF-562271 HCl | 40.60 | 70.73 | – | no | 4560 | 4.94 | 12 | IC50 [5]: 5.86 µM; IC50 [6, 9]: 45.5 µM
CCN1/C(=C/C(C)=O)Sc2ccc(OC)cc21 [TG003] | 6.70 | 9.57 | – | no | – | – | – | Efficacy [5]: 49.18; Hill Coef [5]: 4.96; Max Resp [5]: 37.84; CC-v2 [5]: 3; Efficacy [6]: 0.00; Max Resp [6]: 8.95; CC-v2 [6]: 4
COc1ccccc1-c1c[nH]c2ncc(-c3cncc(C(=O)N(C)C)c3)cc12 [PPY A] | 11.97 | 88.01 | yes | no | – | 8.52 | 0.00304 | ABL1 KGP pIC50 [5]: 7.53; IC50 [5]: 0.0341 µM
COc1ccc(S(=O)(=O)N(C(C)=O)c2ccccc2/C=C/c2cc[n+]([O-])cc2)cc1 [HMN-214] | 5.93 | 8.52 | no | no | – | – | – | –
COc1cc2c(Oc3ccc4[nH]c(C)cc4c3F)ncnc2cc1OCCCN1CCCC1 [Cediranib] | 5.41 | – | yes | no | – | – | – | SDR Ave Max Response [2]: 72.22
c1cc(-c2cc(C3CCNCC3)[nH]n2)ccn1 [ETP 45835 2HCl] | 25.66 | -32.09 | – | no | 19700 | 5.02 | 9.57 | EC50 [1]: 8320 nM; IC50 [6, 10]: 83.2 µM
I-BET762 | – | 6.74 | no | – | – | – | – | –
Nc1ncnc2c1c(-c1cnc3[nH]ccc3c1)nn2C1CCCC1 [PP-121] | 6.39 | – | yes | yes | – | – | – | –
PF-477736 | 33.34 | 81.41 | – | no | 1290 | 6.38 | 0.432 | ABL1 KGP pIC50 [5]: 6.01; IC50 [5]: 1.04 µM; IC50 [6, 9]: 5.32 µM
C/C(O)=C(\C#N)C(=O)Nc1cc(Br)ccc1Br [LFM-A13] | -81.79 | -82.68 | no | no | 4140 | 5.44 | 3.72 | PKA SDR Assay Mean (pSDR50) ([1]; without ATP): 5.40
O=c1c(O)c(-c2ccc(O)c(O)c2)oc2cc(O)cc(O)c12 [Quercetin] | -5.00 | 48.80 | – | no | – | – | 9.18 | IC50 [5]: 5.88 µM; Efficacy [6]: -15.69; Hill Coef [6]: 1.22; Max Resp [6]: 9.03; CC-v2 [6]: 4
COc1cc2c(N3CCN(C(=O)Nc4ccc(OC(C)C)cc4)CC3)ncnc2cc1OCCCN1CCCCC1 [Tandutinib] | 7.68 | – | no | no | – | – | – | SDR Ave Max Response [2]: 63.54
N[C@H]1CC[C@H](Nc2nc(Nc3ccc(C(=O)N4CCCCC4)cc3)c3ncn(-c4cccc(F)c4)c3n2)CC1 [Purfalcamine] | 23.75 | 91.87 | – | no | – | 6.61 | 0.248 | EC50 [1]: 117000 nM; ABL1 KGP pIC50 [5]: 5.42; IC50 [5]: 3.88 µM; IC50 [6, 10]: 22.9 µM; IC50 [6, 9]: 30 µM
O=[N+]([O-])O[C@H]1CO[C@H]2[C@@H]1OC[C@H]2O[N+](=O)[O-] [Isosorbide dinitrate] | 6.02 | 6.72 | no | no | – | – | – | –
Cc1n[nH]c2ccc(-c3cncc(OC[C@@H](N)Cc4c[nH]c5ccccc45)c3)cc12 [A-443654] | 40.10 | -27.36 | – | yes | 188 | 5.32 | 5.63 | IC50 [6, 9]: 2.06 µM
O=S(=O)(NCCNC/C=C/c1ccc(Br)cc1)c1cccc2cnccc12 [H-89, reference compound] | – | – | – | – | – | – | – | PKA SDR ([1]; M -4.45): 61.3 and 59.1 and 49.2; PKA SDR ([1]; M -4.75): 61.4 and 58.5 and 52.3; PKA SDR ([1]; M -5.05): 60.9 and 55.5 and 49.6; PKA SDR ([1]; M -5.35): 55.3 and 45.9 and 48.2; PKA SDR ([1]; M -5.65): 48.5 and 39.4 and 60.1; PKA SDR ([1]; M -5.95): 47.4 and 33.3 and 39.2; PKA SDR ([1]; M -6.25): 38.3 and 24.0 and 33.5; PKA SDR ([1]; M -6.55): 31.1 and 18.8 and 27.3; SDR assay statistics Ave RLU [1, 11]: 31921.7 RLU; SDR assay statistics S:B [1, 11]: 1.5; SDR assay statistics S:N [1, 11]: 2.6; SDR assay statistics Z’ [1, 11]: -0.628; Standard assay statistics Ave RLU [6, 12]: 21788.2 RLU; Standard assay statistics S:B [6, 12]: 6.8; Standard assay statistics S:N [6, 12]: 6.3; Standard assay statistics Z’ [6, 12]: 0.328
Cc1cc(O)c2c(c1)C(=O)c1cc(O)cc(O)c1C2=O [Emodin] | -14.68 | -3.42 | – | no | 15200 | – | – | EC50 [1]: 14100 nM; Efficacy [5]: 23.75; Hill Coef [5]: 1.10; Max Resp [5]: 17.37; CC-v2 [5]: 4; Efficacy [6]: -14.49; Hill Coef [6]: 3.19; Max Resp [6]: 8.59; CC-v2 [6]: 4
Cn1cc(-c2[nH]c3cc(NC(=O)[C@H](N)C4CCCCC4)cc4c3c2C=NNC4=O)cn1 [PF-477736] | – | – | – | – | – | – | – | EC50 [1]: 1260 nM; IC50 [6, 10]: 4.47 µM
COc1cc(N2CCOCC2)ccc1Nc1ncc(Cl)c(Nc2ccccc2NS(C)(=O)=O)n1 [CZC 54252 HCl] | 40.07 | 69.42 | – | no | 1580 | 5.09 | 9.66 | EC50 [1]: 1350 nM; ABL1 KGP pIC50 [5]: 5.38; IC50 [5]: 10.1 µM; IC50 [6, 10]: 33.9 µM; IC50 [6, 9]: 49.9 µM
N#Cc1cn([C@@H]2O[C@H](CO)[C@@H](O)[C@H]2O)c2ncnc(N)c12 [Toyocamycin] | -0.53 | 72.44 | no | no | – | 4.93 | 12.8 | –
COc1cc(N2CCN(C)CC2)ccc1Nc1nc(N)c(C(=O)c2c(Cl)cccc2Cl)s1 [HMSL10089] | -4.43 | – | no | no | – | – | – | SDR Ave Max Response [2]: 0.77
CC(C)(C)n1nc(-c2cccc3ccccc23)c2c(N)ncnc21 [1-Naphthyl PP1] | 10.40 | 61.87 | yes | no | – | – | – | –
O=C(Nc1c[nH]nc1-c1nc2ccc(CN3CCOCC3)cc2[nH]1)NC1CC1 [AT9283] | 67.79 | – | – | yes | 45.3 | – | – | EC50 [1]: 43.7 nM; IC50 [6, 9]: 0.861 µM
